Conditions: rat; liver microsomes; pH 7.4; 15.0 min; 1.0 µM

Compound	half-life [min]
CCn1c(C(=O)NCCc2ccc(OC)cc2)cc2sccc21	1.9
COc1ccc(CCN2CCC(Nc3nc4ccccc4n3Cc3ccc(F)cc3)CC2)cc1	4.18
O=[S+]([O-])(Nc1ccc(N2CCNCC2)cc1)c1ccc(NCc2ccc(Br)cc2O)cc1	> 30
Cc1cc(C)nc(NC(=S)N2CCN(c3cccc(OC(F)F)c3)CC2)c1	> 30
FC(F)(F)c1ccccc1-c1nc(NCc2cccc3ccccc23)c2ccccc2n1	4.33
NC(=O)C1CCN(c2nc(-c3ccccc3-c3ccccc3)cs2)CC1	2.45
COC(=O)C1=C(C)NC(C)=C(C(=O)O[C@@H]2CCCN(Cc3ccccc3)C2)[C@@H]1c1cccc([N+](=O)[O-])c1	1.3
Cc1ccc(S(=O)(=O)Nc2ncccc2C(=O)Nc2nc(-c3ccccc3)cs2)cc1	14
CCCCCn1c(=O)[nH]c2cc(C(=O)NCCCN3CCCCC3)ccc2c1=O	> 30
CCc1ccc(C2C(C(=O)Nc3ccccc3OC)=C(C)Nc3c(C(=O)Nc4ccc(C)cc4)cnn32)cc1 (stereo unspecified)	2.75
Cc1ccc2c(c1)c(=O)c1ccccc1n2CCCC(=O)Nc1cc(Cl)ccc1C	3.79
COC(=O)Nc1nc2ccc(SC(C)C)cc2[nH]1	9.99
COc1ccc(-c2c(-c3cc(C(=O)O)ccn3)ncn2C)cc1	> 30
CC1=C(C(=O)Nc2nncs2)C2(CCCC2)N=C(Nc2nc3ccccc3o2)N1	> 30
Cc1cccc(C(=O)N2CCc3cc(-c4nc(NC(=O)Cc5ccc6c(c5)OCO6)sc4C)ccc32)c1	4.4
Cc1cc(C)nc(NC(=S)N2CCN(c3cccc(C(F)(F)F)c3)CC2)c1	> 30
Fc1ccc(Nc2nc(-n3ccnc3)nc3ccccc23)cc1F	> 30
COC(=O)C1=C(C)NC(=O)CC1C(=O)Nc1ccc(Cl)cc1 (stereo unspecified)	21
Cn1cnc(-c2nccc3c(=O)[nH]c(OCCCC(F)(F)F)nc23)c1	16.5
COc1ccc(-n2nc(C3CCCN([S+](=O)([O-])c4cccc(C(F)(F)F)c4)C3)[nH]c2=O)cc1 (stereo unspecified)	6.33
CCn1nc(C2CCN(C(=O)CCO)CC2)nc1-c1cnc(N)c(-c2nnc(C(C)(C)C)o2)n1	> 30
Cc1ccc(S(=O)(=O)Nc2ccc(C(=O)Nc3nc(-c4ccc(Cl)cc4)cs3)cc2)cc1	16
COC(=O)c1ccc(NS(=O)(=O)c2c(C)nc3sccn3c2=O)cc1	3.88
COc1ncccc1-c1cc2[nH]ccc2c(C(=O)NCc2c(C)cc(C)[nH]c2=O)n1	5.48
O=C(Nc1ccc(S(=O)(=O)Nc2nccs2)cc1)c1ccc2ccccc2c1	> 30
Cc1ccccc1C(=O)Nc1nc2c(s1)CC(C(C)(C)C)CC2 (stereo unspecified)	10.5

Compound	half-life [min]
Cc1cc(/C=C2/C(=O)Nc3ccccc32)cc(C)c1O	11
N#Cc1nc(-c2cccc3ccccc23)oc1NC1COC1	28
Cc1ccc(S(=O)(=O)Nc2cc3c(cc2C(=O)Nc2nc(-c4ccccc4)cs2)OCO3)cc1	6.7
O=C1Cc2cc(C(=O)c3ccco3)ccc2N1	20
O=C1Nc2ccccc2/C1=C\c1cc(Br)c(O)c(Br)c1	26
CC(=O)N[C@H]1CN(C2CCN(c3ccc(F)cc3C)CC2)C[C@@H]1C1CC1	2.3
NC(=O)C1CCN(c2nc(-c3cccc4ccccc34)cs2)CC1	4.72
CCS(=O)(=O)c1cccc(C(=O)Nc2ccc(-c3nc4ccccc4s3)c(O)c2)c1	> 30
CCN(CCCOc1ccc2c(Nc3cc(CC(=O)Nc4cccc(F)c4)[nH]n3)ncnc2c1)CCOP(=O)(O)O	> 30
CCc1ccc(NC(=O)c2[nH]c(C)c(C(C)=O)c2C)cc1S(=O)(=O)Nc1ccc(C#N)cc1	14.7
O=[S+]([O-])(Nc1cnc2ccccc2c1)c1ccc(NCc2ccc(Cl)cc2O)cc1	18
COC(=O)c1ccc(NC(=O)c2nc3ccccc3n(C)c2=O)cc1	2.98
Cc1ccc(S(=O)(=O)Nc2nc3ccc(C)cc3nc2Nc2ccc3c(c2)OCO3)cc1	> 30
Cn1cc2c3c(cccc31)CN(C(=O)c1ccc(F)c(Cl)c1)CC2	1.88
Cc1cccc(-c2cc(NC(=O)c3ccccc3C)n(-c3ccccc3)n2)c1	3.18
O=C(O)c1ccnc2cc(-c3nc4ccccc4n3CCN3CCCCC3)sc12	> 30
CC(=O)c1c(C)[nH]c(C(=O)Nc2cccc([S+](=O)([O-])Nc3c(C)cccc3C)c2)c1C	5
Cc1ccc(S(=O)(=O)Nc2cc(F)ccc2C(=O)Nc2nc(-c3ccccc3)cs2)cc1	5.6
O=C1Nc2ccccc2/C1=C/c1cc(Cl)c(O)c(Cl)c1	> 30
COc1ccc(/C=C2/C(=O)Nc3ccccc32)cc1O	> 30
FC(F)(F)c1cccc(N2CCN(C(=S)Nc3cc4ccccc4cn3)CC2)c1	> 30
CNC(=O)c1nn(C)c2c1C(C)(C)Cc1cnc(Nc3ccc(N4CCN(C)CC4)cc3)nc1-2	> 30
CC(C)N(CCC(=O)c1ccc2ccccc2c1)Cc1ccccc1	1.65
Cc1cc2ccccc2n1CC(=O)NC1CCCCC1	2.8
CN(C)CC/C=C1\c2ccccc2Sc2ccc(Cl)cc21	1.76
COc1ccc(Nc2nnc(-c3ccc(C)c(S(=O)(=O)NCc4nc5ccccc5[nH]4)c3)c3ccccc23)cc1	5.72

Compound	half-life [min]
COc1ccc(-c2ccc3ncc(Nc4cccnc4OC)n3n2)cn1	10.8
CN(C)c1cccc(-c2ncc(F)c(N3CCC(C(N)=O)CC3)n2)c1	2.08
Cc1ccc(-c2cc(C(=O)NC3CCCCC3)c3ccccc3n2)cc1	9.42
COc1cccc(C(=O)Nc2ccc3c(N4CCOCC4)ncnc3c2)c1	27.3
COc1ccc(C2=Nc3ccc(Br)cc3C(c3ccccc3)N2CC(=O)NN)cc1 (stereo unspecified)	8.16
O=C(Nc1ccc([S+](=O)([O-])Nc2nccs2)cc1)c1ccn[nH]1	> 30
COc1cc(-c2cn(C)c(=O)c3cnccc23)c(OC)cc1CN(C)C	> 30
O=C(Nc1nc(-c2ccccc2)cs1)c1ccncc1NS(=O)(=O)c1ccc(F)cc1	20
Cc1ccc(C)c(NC2=C(c3ccc(C(F)(F)F)cc3)C(=O)c3ccccc32)c1	9.11
O=C(Nc1ccc(F)cc1F)c1cc(-c2ccc[nH]2)n[nH]1	16.7
O=C(Nc1ccc(S(=O)(=O)Nc2nccs2)cc1)c1ccnc(-c2ccccc2)c1	> 30
Cc1cnc(-c2ccccc2C2COC2)nc1NCC1CCN(c2cccnc2)CC1	> 30
CC[C@@]1(O)C(=O)OCc2c1cc1n(c2=O)Cc2c-1nc1cc(F)c(C)c3c1c2[C@@H](N)CC3	> 30
O=C(c1cnccn1)N1CCC2(CCCN(C(c3ccccc3)c3ccccc3)C2)CC1	1.8
CCc1ccc(-n2nc(C)c3c2NC(=O)CSC3c2ccccc2C)cc1 (stereo unspecified)	2.44
COCCNC(=O)[C@H]1C[C@H](Oc2ccccc2)CN1Cc1ccc2[nH]ccc2c1	0.97
O=C(Nc1ccc(S(=O)(=O)Nc2nccs2)cc1)c1cccnc1	> 30
O=[N+]([O-])c1ccc(CNc2ccc([S+](=O)([O-])Nc3nccs3)cc2)c(O)c1	13
Cc1csc2nc(-c3cccc(NC(=O)c4ccccc4Cl)c3)cn12	0.9
CC1(C)CCC(c2ccc(Cl)cc2)=C(CN2CCN(c3ccc(C(=O)NS(=O)(=O)c4ccc(N[C@H](CCN5CCOCC5)CSc5ccccc5)c(S(=O)(=O)C(F)(F)F)c4)cc3)CC2)C1	> 30
O=S(=O)(Nc1cccc2cccnc12)c1ccc(NCc2ccc(Br)cc2O)cc1	2.4
OCC(O)CCO/N=C1/C(c2c(O)[nH]c3ccccc23)=Nc2ccccc21 (stereo unspecified)	10
CCCc1cc(=O)oc2c3c(c4c(c12)OC(C)(C)C=C4)OC(C)C(C)C3O (stereo unspecified)	13.2
NC(=O)C1CCN(c2ncc(-c3cccc(N4CCCC4)c3)s2)CC1	15
CCOC(=O)c1ccc(NC(=O)N2Cc3[nH]cnc3C[C@H]2c2nc(C(C)C)no2)cc1	6.65
C#Cc1ccc(NC(=O)c2cnn3c(C)cc(C)nc23)cc1	25.5

Compound	half-life [min]
O=C(NCCCc1ccccc1)C1CCN(c2nc(-c3ccc(Br)cc3)cs2)CC1	2.96
Cc1cc(NS(=O)(=O)c2ccc(NC(=O)Cc3ccc(Cl)c(F)c3)cc2)no1	> 30
CC1(C)C[C@@H]2C[C@@](C)(CN2S(=O)(=O)c2ccc(C(=O)Nc3ccc(Cl)c(S(=O)(=O)N4CCOCC4)c3)cc2)C1	3.95
Cc1ccc(OCCn2c(CCNC(=O)C3CCCCC3)nc3ccccc32)cc1	1.6
O=C(CCCCCCC(=O)Nc1ccccc1)NO	> 30
O=C(Nc1cccc(C(F)(F)F)c1)C1=CCN(Cc2ccc(F)cc2)CC1	3.4
CC(=O)c1ccc(N2CCN(c3ccc(NC(=O)c4ccc(F)cc4)cc3C(=O)O)CC2)cc1	> 30
Cc1ccccc1N(C)C1CN([S+](=O)([O-])c2cccc(C(F)(F)F)c2)C1	1.98
O=C(N[C@@H](Cc1ccccc1)C(=O)CCl)OCc1ccccc1	14
CCc1ccc(NC(=O)c2[nH]c(C)c(C(C)=O)c2C)cc1[S+](=O)([O-])N1CCCCCC1	2.1
Cc1ccc(-n2ncc3c(Nc4cccc(C(=O)O)c4)ncnc32)cc1	> 30
Cc1cc(NS(=O)(=O)c2ccc(NC(=O)Cc3ccc(Cl)c(Cl)c3)cc2)no1	9.7
COc1cc(Cl)cn2c(-c3cccc(NC4CNC4)n3)cnc12	> 30
CC(=O)Nc1ncc(S(=O)(=O)Nc2cnccc2C(=O)Nc2nc(-c3ccccc3)cs2)s1	> 30
Clc1cccc(-c2ccc(-c3nnc(CCCc4ccc5cccnc5n4)o3)cc2)c1	2.3
O=C(CCCN1CCC2(CC1)C(=O)N(Cc1cccc(F)c1)CN2c1ccccc1)c1ccc(F)cc1	1.65
Cc1ccc(S(=O)(=O)Nc2ccccc2C(=O)Nc2nc(-c3ccccc3)c(Br)s2)cc1	10
CN(C)c1ccccc1-c1csc(N2CCC(C(N)=O)CC2)n1	9.95
N=c1c2c(ncn1-c1ccccc1)Oc1ccc3ccccc3c1C2c1ccc2c(c1)CCO2 (stereo unspecified)	10.1
O=[S+]([O-])(Nc1nccs1)c1ccc(NCc2cc(Cl)cc(Br)c2O)cc1	12
CC(=O)c1c(C)[nH]c(C(=O)Nc2cccc(S(=O)(=O)N3CCOCC3)c2)c1C	17
COc1cccc(CNC(=O)CCCn2nc(C)c3c(C)n(-c4ccc(C)cc4)nc3c2=O)c1OC	1.07
CCN(CC)CCOc1ccc(Cc2ccccc2)cc1	1.73

— PubChem BioAssay AID1508591
